# Laboratory results taken from patent US20250289787A1, “HERBICIDAL 2-OXO-NICOTINIC ACID DERIVATIVES” (SYNGENTA CROP PROTECTION AG, priority 2022, published 2025).
# How the values were obtained:
# Type in all cases: in vivo
# [1] = test system: Amaranthus palmeri (AMAPA); assay: Pre-emergence test, herbicidal damage; settings: 1000 g/ha unless otherwise stated, evaluated after 13 days, five-point scale
# [2] = test system: Echinochloa crus-galli (ECHCG); assay: Pre-emergence test, herbicidal damage; design: key: 5=81-100%; 4=61-80%; 3=41-60%; 2=21-40%; 1=1-20%; 0=no damage to the plant; -=not tested; settings: 1000 g/ha unless otherwise stated, evaluated after 13 days, five-point scale
# Setaria faberi (SETFA) [3] = assay: Post-emergence test, herbicidal damage; design: key: 5=81-100%; 4=61-80%; 3=41-60%; 2=21-40%; 1=1-20%; 0=no damage to the plant; -=not tested; settings: sprayed after 8 days cultivation, 1000 g/ha unless otherwise stated, evaluated after 13 days, five-point scale
# Description: (§1) Seeds of a variety of test species are sown in standard soil in pots Amaranthus palmeri (AMAPA), (Amaranthus retoflexus (AMARE), Echinochloa crus-galli (ECHCG), Zea mays (ZEAMX), Ipomoea 5 hederacea (IPOHE), and Setaria faberi (SETFA). After 8 days cultivation under controlled conditions in a glasshouse (at 24° C./16° C., day/night; 14 hours light; 65% humidity), the plants are sprayed with an aqueous spray solution derived from the formulation of the technical active ingredient in acetone/water (50:50) solution containing 0.5% Tween 20 (polyoxyethelyene sorbitan monolaurate, CAS RN 9005-64-5). Compounds are applied at 1000 g/ha unless otherwise stated. The test plants are then grown in a glasshouse under controlled conditions in a glasshouse (at 24° C./16° C., day/night; 14 hours light; 65% humidity) and watered twice daily. After 13 days the test is evaluated for the percentage damage caused to the plant. The biological activities are shown in the following table on a five-point scale (5=81-100%; 4=61-80%; 3=41-60%; 2=21-40%; 1=1-20%; 0=no damage to the plant; -=not tested).
# [4] = test system: Echinochloa crus-galli (ECHCG); assay: Post-emergence test, herbicidal damage; design: key: 5=81-100%; 4=61-80%; 3=41-60%; 2=21-40%; 1=1-20%; 0=no damage to the plant; -=not tested; settings: sprayed after 8 days cultivation, 1000 g/ha unless otherwise stated, evaluated after 13 days, five-point scale
# Description: as §1
# Zea mays (ZEAMX) [5] = assay: Post-emergence test, herbicidal damage; design: key: 5=81-100%; 4=61-80%; 3=41-60%; 2=21-40%; 1=1-20%; 0=no damage to the plant; -=not tested; settings: sprayed after 8 days cultivation, 1000 g/ha unless otherwise stated, evaluated after 13 days, five-point scale
# Description: as §1
# [6] = test system: Amaranthus palmeri (AMAPA); assay: Post-emergence test, herbicidal damage; design: key: 5=81-100%; 4=61-80%; 3=41-60%; 2=21-40%; 1=1-20%; 0=no damage to the plant; -=not tested; settings: sprayed after 8 days cultivation, 1000 g/ha unless otherwise stated, evaluated after 13 days, five-point scale
# Description: as §1
# [7] = test system: Ipomoea hederacea (IPOHE); assay: Post-emergence test, herbicidal damage; design: key: 5=81-100%; 4=61-80%; 3=41-60%; 2=21-40%; 1=1-20%; 0=no damage to the plant; -=not tested; settings: sprayed after 8 days cultivation, 1000 g/ha unless otherwise stated, evaluated after 13 days, five-point scale
# Description: as §1
# Zea mays (ZEAMX) [8] = assay: Pre-emergence test, herbicidal damage; design: key: 5=81-100%; 4=61-80%; 3=41-60%; 2=21-40%; 1=1-20%; 0=no damage to the plant; -=not tested; settings: 1000 g/ha unless otherwise stated, evaluated after 13 days, five-point scale
# Setaria faberi (SETFA) [9] = assay: Pre-emergence test, herbicidal damage; design: key: 5=81-100%; 4=61-80%; 3=41-60%; 2=21-40%; 1=1-20%; 0=no damage to the plant; -=not tested; settings: 1000 g/ha unless otherwise stated, evaluated after 13 days, five-point scale
# [10] = test system: Amaranthus retoflexus (AMARE); assay: Pre-emergence test, herbicidal damage; design: key: 5=81-100%; 4=61-80%; 3=41-60%; 2=21-40%; 1=1-20%; 0=no damage to the plant; -=not tested; settings: 1000 g/ha unless otherwise stated, evaluated after 13 days, five-point scale
# [11] = test system: Ipomoea hederacea (IPOHE); assay: Pre-emergence test, herbicidal damage; design: key: 5=81-100%; 4=61-80%; 3=41-60%; 2=21-40%; 1=1-20%; 0=no damage to the plant; -=not tested; settings: 1000 g/ha unless otherwise stated, evaluated after 13 days, five-point scale
# [12] = test system: Amaranthus retoflexus (AMARE); assay: Post-emergence test, herbicidal damage; design: key: 5=81-100%; 4=61-80%; 3=41-60%; 2=21-40%; 1=1-20%; 0=no damage to the plant; -=not tested; settings: sprayed after 8 days cultivation, 1000 g/ha unless otherwise stated, evaluated after 13 days, five-point scale
# Description: as §1
smiles,measurement,setting,value
"Cc1c(Br)c(-c2ccc(Cl)c(Cl)c2)c(C(=O)O)c(=O)n1-c1ccc(Cl)cc1F [Compound 21, 5-bromo-1-(4-chloro-2-fluoro-phenyl)-4-(3,4-dichlorophenyl)-6-methyl-2-oxo-pyridine-3-carboxylic acid]","percentage damage caused to the plant, AMAPA",[1],4 (4=61-80%)
same,"percentage damage caused to the plant, ECHCG",[2],1 (1=1-20%)
same,"percentage damage caused to the plant, SEFTA",Setaria faberi (SETFA) [3],1 (1=1-20%)
same,"percentage damage caused to the plant, ECHCG",[4],0
same,"percentage damage caused to the plant, ZEAMX",Zea mays (ZEAMX) [5],1 (1=1-20%)
same,"percentage damage caused to the plant, AMAPA",[6],4 (4=61-80%)
same,"percentage damage caused to the plant, IPOHE",[7],1 (1=1-20%)
same,"percentage damage caused to the plant, ZEAMX",Zea mays (ZEAMX) [8],0
same,"percentage damage caused to the plant, SEFTA",Setaria faberi (SETFA) [9],1 (1=1-20%)
same,"percentage damage caused to the plant, AMARE",[10],4 (4=61-80%)
"Cc1cc(-c2ccc(Cl)c(Cl)c2)c(C(=O)O)c(=O)n1Cc1ccc(C(F)(F)F)cc1F [Compound 27, 4-(3,4-dichlorophenyl)-1-[[2-fluoro-4-(trifluoromethyl)phenyl]methyl]-6-methyl-2-oxo-pyridine-3-carboxylic acid]","percentage damage caused to the plant, AMAPA",[1],1 (1=1-20%)
same,"percentage damage caused to the plant, IPOHE",[11],0
same,"percentage damage caused to the plant, SEFTA",Setaria faberi (SETFA) [3],0
same,"percentage damage caused to the plant, AMARE",[12],0
same,"percentage damage caused to the plant, ECHCG",[4],0
same,"percentage damage caused to the plant, ZEAMX",Zea mays (ZEAMX) [5],0
same,"percentage damage caused to the plant, AMAPA",[6],1 (1=1-20%)
same,"percentage damage caused to the plant, ZEAMX",Zea mays (ZEAMX) [8],0
same,"percentage damage caused to the plant, SEFTA",Setaria faberi (SETFA) [9],0
same,"percentage damage caused to the plant, AMARE",[10],0
"Cc1c(Br)c(-c2ccc(Cl)c(Cl)c2)c(C(=O)O)c(=O)n1-c1ccc(F)cc1F [Compound 29, 5-bromo-4-(3,4-dichlorophenyl)-1-(2,4-difluorophenyl)-6-methyl-2-oxo-pyridine-3-carboxylic acid]","percentage damage caused to the plant, IPOHE",[11],1 (1=1-20%)
same,"percentage damage caused to the plant, ECHCG",[2],1 (1=1-20%)
same,"percentage damage caused to the plant, SEFTA",Setaria faberi (SETFA) [3],1 (1=1-20%)
same,"percentage damage caused to the plant, AMARE",[12],1 (1=1-20%)
same,"percentage damage caused to the plant, ECHCG",[4],1 (1=1-20%)
same,"percentage damage caused to the plant, ZEAMX",Zea mays (ZEAMX) [5],0
same,"percentage damage caused to the plant, IPOHE",[7],1 (1=1-20%)
same,"percentage damage caused to the plant, ZEAMX",Zea mays (ZEAMX) [8],0
same,"percentage damage caused to the plant, SEFTA",Setaria faberi (SETFA) [9],1 (1=1-20%)
same,"percentage damage caused to the plant, AMARE",[10],1 (1=1-20%)
"Cc1cc(-c2ccc(Cl)c(Cl)c2)c(C(=O)O)c(=O)n1-c1ccc(F)cc1F [Compound 14, 4-(3,4-dichlorophenyl)-1-(2,4-difluorophenyl)-6-methyl-2-oxo-pyridine-3-carboxylic acid]","percentage damage caused to the plant, IPOHE",[11],0
same,"percentage damage caused to the plant, ECHCG",[2],0
same,"percentage damage caused to the plant, SEFTA",Setaria faberi (SETFA) [3],1 (1=1-20%)
same,"percentage damage caused to the plant, AMARE",[12],1 (1=1-20%)
same,"percentage damage caused to the plant, ECHCG",[4],1 (1=1-20%)
same,"percentage damage caused to the plant, ZEAMX",Zea mays (ZEAMX) [5],1 (1=1-20%)
same,"percentage damage caused to the plant, AMAPA",[6],1 (1=1-20%)
same,"percentage damage caused to the plant, IPOHE",[7],0
same,"percentage damage caused to the plant, ZEAMX",Zea mays (ZEAMX) [8],0
same,"percentage damage caused to the plant, SEFTA",Setaria faberi (SETFA) [9],0
same,"percentage damage caused to the plant, AMARE",[10],0
